From publication PMC8877224, “Diverse Secondary Metabolites from the Coral-Derived Fungus Aspergillus hiratsukae SCSIO 5Bn1003” (Marine Drugs, 2022)
Read-outs that look alike come from different tables or passages of the source. Where a SMILES comes first, the peptide text is derived from it. [ ]: non-standard residue; d: D form. NMeF = CN[CH](Cc1ccccc1)C(=O)O; 2Abz = Nc1ccccc1C(=O)O

Columns and labels:
[1] = tested on: Bacillus subtilis; experiment: antibacterial assay, Mueller–Hinton broth microdilution; type: cell-based; conditions: for inhibition at 50 µM: primary screening, read-out: Inhibition rate Bacillus subtilis
Method: (§1) All the compounds were tested for antibacterial activity against Staphylococcus aureus and Bacillus subtilis using the Mueller–Hinton broth microdilution method. Ciprofloxacin was used as a positive control.

[2] = tested on: Staphylococcus aureus; experiment: as above; type: cell-based; conditions: for inhibition at 50 µM: primary screening, read-out: Inhibition rate Staphylococcus aureus
Method: as §1

[3] = antioxidative activity (DPPH radical scavenging); conditions: for Inhibition rate antioxidative activity: primary screening, 100 μM; for EC50: DPPH radical scavenging
Method: (§2) All compounds were evaluated for their in vitro cytotoxicity against four human cancer lines, SF-268 (human glioblastoma carcinoma), MCF-7 (breast cancer), HepG-2 (liver cancer), and A549 (lung cancer), as well as antioxidative activity, α-glucosidase inhibitory activity, and antimicrobial activity against the bacteria Staphylococcus aureus and Bacillus subtilis (Tables S1–S3).
(§3) The details of the experimental procedures for cytotoxic and antioxidative bioassays were described previously in our former paper.

[4] = tested on: intersegmental vessel (ISV) formation; experiment: zebrafish assay for in vivo anti-angiogenic activity; conditions: zebrafish embryos
Method: The maintenance of zebrafish and the collection of embryos followed the method in the literature. One day after fertilization, the embryos were dechorionated with tweezers in a Petri dish coated with 1% agarose and distributed into small Petri dishes (35 × 10 mm) with 3 mL of assay solution, depending on the drug treatment. The embryos receiving a mixture of DMSO (0.1%) were used as the vehicle-treated control and were equivalent to a “no treatment” group. All the experiments were repeated at least three times, with 20 embryos per group.

[5] = tested on: SF-268 (human glioblastoma carcinoma); experiment: in vitro cytotoxicity against SF-268; type: cell-based
Method: as §2, §3

[6] = tested on: HepG-2 (liver cancer); experiment: in vitro cytotoxicity against HepG-2; type: cell-based; conditions: Homo sapiens
Method: as §2, §3

[7] = tested on: A549 (lung cancer); experiment: in vitro cytotoxicity against A549; type: cell-based; conditions: Homo sapiens
Method: as §2, §3

[8] = tested on: MCF-7 (breast cancer); experiment: in vitro cytotoxicity against MCF-7; type: cell-based; conditions: Homo sapiens
Method: as §2, §3

[9] = SF-268, primary screening, 50 μM, read-out: Inhibition rate SF-268
[10] = HepG2, primary screening, 50 μM, read-out: Inhibition rate HepG-2
[11] = A549, primary screening, 50 μM, read-out: Inhibition rate A549
[12] = MCF7, primary screening, 50 μM, read-out: Inhibition rate MCF-7
[13] = Table 4, mean ± SD, read-out: MIC Bacillus subtilis
[14] = read-out: MIC against Bacillus subtilis
[15] = MCF7, MCF-7 cells, mean ± SD, read-out: IC50 MCF-7
[16] = Table 4, mean ± SD, read-out: MIC Staphylococcus aureus
[17] = read-out: MIC against Staphylococcus aureus

SMILES	inhibition at 50 µM [1]	inhibition at 50 µM [2]	Inhibition rate antioxidative activity [3]	inhibition at 50 µM [5, 9]	inhibition at 50 µM [6, 10]	inhibition at 50 µM [7, 11]	inhibition at 50 µM [8, 12]	also measured
CN1C(=O)C(Cc2ccc(O)cc2)NC(=O)CNC(=O)c2ccccc2NC(=O)C1Cc1ccccc1 (stereo not drawn) [Compound 1, asperhiratide] (cyclo([2Abz]GY[NMeF]); configuration not given here)	3.87%	5.22%	4.30%	0.82%	0.38%	4.4%	1.03%	inhibitory effect on intersegmental vessel (ISV) formation [4]: weak inhibitory effect
CC1C(=O)OCC1CC(OC(=O)c1ccccc1)C(C)(O)C1CCC2(O)C3=CC(=O)C4CC(O)C(O)CC4(C)C3CCC12C [Compound 2, 2S,3R,5R,9S,10R,13R,14R,17S,20R,22R,24S,27S-29-norcyasterone-22-O-benzoate]	0.67%	4.34%	1.60%	1.43%	1.45%	1.21%	1.01%	
CC(C)[C@H](C)C[C@@H](O)[C@](C)(O)C1CC[C@@]2(O)C3=CC(=O)C4C[C@@H](O)CC[C@]4(C)C3CC[C@]12C (stereo partly drawn) [Compound 4, schizaeasterone A]	5.23%	19.4%	2.80%	8.79%	1.57%	8.6%	19.1%	
C=C1CCC2CC1C2(C)C1CCC(C)C(=O)O1 (stereo not drawn) [Compound 3, asperhiratone]	9.17%	7.98%	2.00%	2.31%	0.13%	0.83%	3.24%	
CC(C)[C@H](C)/C=C/[C@@H](C)[C@H]1CCC2C3=CC(=O)O[C@@]3(O)CC[C@@]21C (stereo partly drawn) [Compound 6, demethylincisterol A2]	79.6%	29.4%	1.00%	93.2%	81.4%	0.41%	92.2%	MIC [1, 13]: 10.3 ± 0.76 µg/mL; MIC [1, 14]: 10.3 ± 0.76 µM; IC50 ([5]; SF-268 cells, mean ± SD, read-out: IC50 SF-268): 34.8 ± 0.95 µM; IC50 ([6]; HepG2, HepG-2 cells, mean ± SD, read-out: IC50 HepG-2): 43.6 ± 2.08 µM; IC50 ([7]; A549 cells, mean ± SD, read-out: IC50 A549): 50.2 ± 0.54 µM; IC50 [8, 15]: 39.4 ± 0.52 µM
COC(=O)C1=C[C@@H](O)[C@@H](O)[C@H](O)C1 [Compound 13, methyl shikimate]	7.69%	11.8%	32.90%	0.59%	0.66%	0.36%	0.66%	
C=C1C[C@]2(O)[C@@]3(C)CCC(=O)C(C)(C)C3=C(O)C(=O)[C@@]2(C)[C@@H]2C(=O)O[C@@](C)(C(=O)OC)C(=O)[C@@]12C [Compound 5, terretonin]	8.18%	11.8%	1.90%	4.58%	3.52%	2.97%	5.62%	
CCCCCCCc1c(O)cc(CC=C(C)C)c(O)c1C=O [Compound 11, flavoglaucin]	17.5%	13%	18.20%	0.81%	0.39%	1.53%	0.49%	
CC(C)=CC=CC(C)C1CCC2(C)CC3C(C)=CC(=O)C3C(C(=O)O)=CCC12 (stereo not drawn) [Compound 7, asperophiobolin E]	94.3%	82.4%	3.60%	9.64%	40.7%	0.58%	38.8%	MIC [1, 13]: 17 ± 1.25 µg/mL; MIC [1, 14]: 17 ± 1.25 µM; MIC [2, 16]: 103 ± 4.5 µg/mL; MIC [2, 17]: 103 ± 4.5 µM
O=C(O)c1cn(C2CC2)c2cc(N3CCNCC3)c(F)cc2c1=O [Ciprofloxacin, reference compound]								MIC [1, 13]: 0.09 ± 0.003 µg/mL; MIC [2, 16]: 0.07 ± 0.001 µg/mL
COc1cccc2c1C(=O)c1c(O)c3c(c(O)c1C2=O)C[C@@](O)(C(=O)CO)C[C@@H]3O[C@H]1C[C@H](N)[C@H](O)[C@H](C)O1 [Adriamycin, reference compound]								IC50 [8, 15]: 2.02 ± 0.04 µM
C=CC(C)(C)[C@@]12C[C@H]3C(=O)Nc4ccccc4C(=O)N3[C@H]1N(C=O)c1ccccc12 [Compound 10, epi-aszonalenins B]	0.3%	12.6%	0.40%	32.9%	6.7%	0.73%	42.2%	
COC(=O)[C@]1(Cc2ccc(O)c(CC=C(C)C)c2)OC(=O)C(O)=C1c1ccc(O)cc1 [Compound 8, butyrolactone I]	91.3%	84.4%	2.50%					MIC ([1]; read-out: MIC Bacillus subtilis): 5.3 ± 0.29 µg/mL; MIC [1, 14]: 5.3 ± 0.29 µM; MIC ([2]; read-out: MIC Staphylococcus aureus): 59.54 ± 0.5 µg/mL; MIC [2, 17]: 59.54 ± 0.5 µM; IC50 ([5]; SF-268, read-out: IC50 SF-268): 31.4 ± 1.98 µM; inhibition at 50 µM ([5]; SF-268, read-out: Inhibition rate SF-268): 41.9%; IC50 ([6]; HepG2, read-out: IC50 HepG-2): 31 ± 3.04 µM; inhibition at 50 µM ([6]; HepG2, read-out: Inhibition rate HepG-2): 69.1%; IC50 ([7]; A549, read-out: IC50 A549): 32.3 ± 2.36 µM; inhibition at 50 µM ([7]; A549, read-out: Inhibition rate A549): 21.5%; IC50 ([8]; MCF7, read-out: IC50 MCF-7): 38.6 ± 2.48 µM; inhibition at 50 µM ([8]; MCF7, read-out: Inhibition rate MCF-7): 50.7%
COC(=O)[C@]1(Cc2ccc(O)c(CC(O)C(C)(C)O)c2)OC(=O)C(O)=C1c1ccc(O)cc1 (stereo partly drawn) [Compound 9, butyrolactones VI]	3.76%	19.6%		8.47%	5.43%	0.29%	17.7%	EC50 [3]: 12.2 ± 0.78 µM; IC50 ([3]; as given in abstract, read-out: radical scavenging activities against DPPH, IC50): 12.2 ± 0.78 µM
O=C1O[C@H]([C@@H](O)CO)C(O)=C1O [Ascorbic acid, reference compound]								EC50 [3]: 11.3 ± 0.56 µM
